Measured values taken from patent US9226500B2, “Pesticidal compositions and processes related thereto” (Dow AgroSciences LLC, priority 2012, dated 2016).

What was measured:
[1] = system: Green Peach Aphid (Myzus persicae); assay: Bioassay on Green Peach Aphid (GPA), foliar spray on cabbage seedlings; format: in vivo; conditions: for pest or weed control at 200 µg/mL / pest or weed control at 200 ppm: Myzus persicae, 72 h, read-out: GPA Rating; for pest or weed control at 200 µg/mL: foliar, Table 5, Prophetic Compounds Subsequently Exemplified; for pest or weed control at 200 ppm: corrected % control (Abbott), 200 ppm foliar spray on cabbage seedlings, three days
Description: Certain molecules disclosed in this document were tested against GPA using procedures described in the following example. In the reporting of the results, the “GPA Rating Table” was used (See Table Section). Cabbage seedlings grown in 3-inch pots, with 2-3 small (3-5 cm) true leaves, were used as test substrate. The seedlings were infested with 20-50 GPA (wingless adult and nymph stages) one day prior to chemical application. Four pots with individual seedlings were used for each treatment. Test compounds (2 mg) were dissolved in 2 mL of acetone/MeOH (1:1) solvent, forming stock solutions of 1000 ppm test compound. The stock solutions were diluted 5× with 0.025% Tween 20 in water to obtain the solution at 200 ppm test compound. A hand-held aspirator-type sprayer was used for spraying a solution to both sides of […] leaves until runoff. Reference plants (solvent check) were sprayed with the diluent only containing 20% by volume of acetone/MeOH (1:1) solvent. Treated plants were held in a holding room for three days at approximately 25° C. and ambient relative humidity (RH) prior to grading. Evaluation was conducted by counting the number of live aphids per plant under a microscope. Percent Control was measured by using Abbott's correction formula (W. S. Abbott, “A Method of Computing the Effectiveness of an Insecticide” J. Econ. Entomol. 18 (1925), pp. 265-267) as follows. Corrected % Control=100*(X−Y)/X • where • X=No. of live aphids on solvent check plants and • Y=No. of live aphids on treated plants The results are indicated in the tables entitled “Table 3: Assay Results Part 1” and “Table 4: Assay Results Part 2” (See Table Section).

[2] = system: Beet Armyworm (Spodoptera exigua); assay: Bioassay on Beet Armyworm (BAW), 128-well diet tray assay; format: in vivo; conditions: Spodoptera exigua, 168 h; percent mortality of second instar larvae, 50 μg/cm^2 on artificial diet, five to seven days, 25° C.; read-out: BAW Rating
[3] = system: Cabbage Looper (Trichoplusia ni); assay: Bioassay on Cabbage Looper (CL), 128-well diet tray assay; format: in vivo; conditions: 168 h, percent mortality of second instar larvae, 50 μg/cm^2 on artificial diet, five to seven days, 25° C., read-out: CL Rating
Description: (§1) Certain molecules disclosed in this document were tested against BAW, CEW and CL using procedures described in the following examples. In the reporting of the results, the “BAW & CEW & CL Rating Table” was used (See Table Section).
Bioassays on CL (Trichoplusia ni)
Bioassays on CL were conducted using a 128-well diet tray assay. One to five second instar CL larvae were placed in each well (3 mL) of the diet tray that had been previously filled with 1 mL of artificial diet to which 50 μg/cm^2 of the test compound (dissolved in 50 μL of 90:10 acetone-water mixture) had been applied (to each of eight wells) and then allowed to dry. Trays were covered with a clear self-adhesive cover, and held at 25° C., 14:10 light-dark for five to seven days. Percent mortality was recorded for the larvae in each well; activity in the eight wells was then averaged.
“Table 4: Assay Results Part 2” (See Table Section).

[4] = system: Beet Armyworm (Spodoptera exigua); assay: Bioassay on Beet Armyworm (BAW), 128-well diet tray assay; format: in vivo; conditions: Table 5, Performed at 12.5 μg/cm^2, read-out: BAW Rating
[5] = system: Cabbage Looper (Trichoplusia ni); assay: Bioassay on Cabbage Looper (CL), 128-well diet tray assay; format: in vivo; conditions: Table 5, Performed at 12.5 μg/cm^2, read-out: CL Rating
[6] = system: Corn Earworm (Helicoverpa zea); assay: Bioassay on Corn Earworm (CEW), 128-well diet tray assay; format: in vivo; conditions: Table 3, Assays Results Part 1
Description: as §1
Bioassays on CEW (Helicoverpa zea)
Bioassays on CEW were conducted using a 128-well diet tray assay. One to five second instar CEW larvae were placed in each well (3 mL) of the diet tray that had been previously filled with 1 mL of artificial diet to which 50 μg/cm^2 of the test compound (dissolved in 50 μL of 90:10 acetone-water mixture) had been applied (to each of eight wells) and then allowed to dry. Trays were covered with a clear self-adhesive cover, and held at 25° C., 14:10 light-dark for five to seven days. Percent mortality was recorded for the larvae in each well; activity in the eight wells was then averaged. The results are indicated in the table entitled “Table 3: Assay Results Part 1” (See Table Section).

Row | Compound | pest or weed control at 50 µg/cm2, 50 µg/cm2 [2] | pest or weed control at 50 µg/cm2, 50 µg/cm2 [3] | also measured
1 | CC(NC(=O)c1ccc(/C=C/C(c2cc(Cl)c(Cl)c(Cl)c2)C(F)(F)F)cc1Br)C(=O)NCCC(F)(F)F (stereo not shown) [Compound P1631A] | – | – | pest or weed control at 200 µg/mL [1]: 0 to 80%
2 | C[C@@H](NC(=O)c1ccc(/C=C/[C@H](c2cc(Cl)c(Cl)c(Cl)c2)C(F)(F)F)cc1C(F)(F)F)C(=O)NCC(F)(F)F [Compound F20A, N—((R)-1-Oxo-1-((2,2,2-trifluoroethyl)amino)propan-2-yl)-4-((E)-4,4,4-trifluoro-3-(3,4,5-trichlorophenyl)but-1-en-1-yl)-2-(trifluoromethyl)benzamide] | 50 to 100% | 50 to 100% | pest or weed control at 200 ppm [1]: 80 to 100%
3 | O=C(CNC(=O)c1ccc(/C=C/C(c2cc(Cl)cc(C(F)(F)F)c2)C(F)(F)F)cc1Br)NCC(F)(F)F (stereo not shown) [Compound P1411] | – | – | pest or weed control at 200 µg/mL [1]: 0 to 80%
4 | C[C@@H](NC(=O)c1ccc(/C=C/C(c2cc(F)cc(Br)c2)C(F)(F)F)cc1Br)C(=O)NCC(F)(F)F (stereo partly shown) [Compound P298] | – | – | pest or weed control at 200 µg/mL [1]: 0 to 80%
5 | C[C@@H](NC(=O)c1ccc(/C=C/C(c2cc(Cl)c(Cl)c(Cl)c2)C(F)(F)F)cc1C(F)(F)F)C(=O)NCC(F)(F)F (mixture of isomers) [Compound F20] | 50 to 100% | 50 to 100% | –
6 | C[C@@H](NC(=O)c1ccc(/C=C/C(c2cc(C(F)(F)F)cc(C(F)(F)F)c2)C(F)(F)F)cc1Br)C(=O)NCC(F)(F)F (stereo partly shown) [Compound F14] | 50 to 100% | 50 to 100% | –
7 | CCC(NC(=O)c1ccc(/C=C/C(c2cc(Cl)c(Cl)c(Cl)c2)C(F)(F)F)cc1C(F)(F)F)C(=O)NCC(F)(F)F (stereo not shown) [Compound F16A] | 50 to 100% | 50 to 100% | –
8 | CC(C)(NC(=O)c1ccc(/C=C/C(c2cc(Cl)c(Cl)c(Cl)c2)C(F)(F)F)cc1Br)C(=O)NCC(F)(F)F (stereo not shown) [Compound F1, (E)-2-Bromo-N-(2-methyl-1-oxo-1-((2,2,2-trifluoroethyl)amino)propan-2-yl)-4-(4,4,4-trifluoro-3-(3,4,5-trichlorophenyl)but-1-en-1-yl)benzamide] | 50 to 100% | 50 to 100% | pest or weed control at 200 ppm [1]: 0 to 80%
9 | Cc1cc(/C=C/C(c2cc(Cl)c(Cl)c(Cl)c2)C(F)(F)F)ccc1C(=S)NC(C)(C)C(=S)NCC(F)(F)F (stereo not shown) [Compound F31, (E)-2-Methyl-N-(2-methyl-1-thioxo-1-(2,2,2-trifluoroethylamino)propan-2-yl)-4-(4,4,4-trifluoro-3-(3,4,5-trichlorophenyl)but-1-enyl)benzothioamide] | 50 to 100% | 50 to 100% | –
10 | C[C@@H](NC(=O)c1ccc(/C=C/C(c2cccc(C(F)(F)F)c2)C(F)(F)F)cc1Br)C(=O)NCC(F)(F)F (stereo partly shown) [Compound F22] | 50 to 100% | 50 to 100% | –
11 | O=C(CNC(=O)c1ccc(/C=C/C(c2cc(Br)cc(Br)c2)C(F)(F)F)cc1Br)NCC(F)(F)F (stereo not shown) [Compound P1969] | – | – | pest or weed control at 12.5 µg/cm2, 12.5 µg/cm2 [4]: 50 to 100%; pest or weed control at 12.5 µg/cm2, 12.5 µg/cm2 [5]: 50 to 100%
12 | O=C(NCc1ccc(/C=C/C(c2cc(Cl)c(Cl)c(Cl)c2)C(F)(F)F)cc1Cl)Oc1ccccc1Cl (stereo not shown) [CC40] | – | – | CEW Rating [6]: A (50-100)
13 | CCNC(=O)[C@@H](C)NC(=O)c1ccc(/C=C/C(c2cc(Cl)c(Cl)c(Cl)c2)C(F)(F)F)cc1C (stereo partly shown) [Compound P1624] | – | – | pest or weed control at 200 µg/mL [1]: 80 to 100%
14 | C[C@@H](NC(=O)c1ccc(/C=C/C(c2cc(Cl)c(Cl)c(Cl)c2)C(F)(F)F)cc1C(F)(F)F)C(=S)NCC(F)(F)F (stereo partly shown) [Compound F28] | 50 to 100% | 50 to 100% | –
15 | O=C(CNC(=O)c1ccc(/C=C/C(c2cc(Cl)c(Cl)c(Cl)c2)C(F)(F)F)cc1C(F)(F)F)NCC(F)F (stereo not shown) [Compound P1566] | – | – | pest or weed control at 200 µg/mL [1]: 80 to 100%
16 | CC[C@H](NC(=O)c1ccc(/C=C/C(c2cc(Cl)c(Cl)c(Cl)c2)C(F)(F)F)cc1C)C(=O)NCC(F)(F)F (stereo partly shown) [Compound F15] | 50 to 100% | 50 to 100% | –
17 | NC(=O)c1ccc(/C=C/C(c2cc(Cl)cc(Cl)c2)C(F)(F)F)cc1 (stereo not shown) [AC2] | – | – | melting point: 110 to 112 °C
18 | Cc1cc(/C=C/C(c2cc(Cl)c(Cl)c(Cl)c2)C(F)(F)F)ccc1C(=O)N[C@H](C)C(=O)NCC(F)(F)F (stereo partly shown) [Compound F7] | 50 to 100% | 50 to 100% | –
19 | O=C(NCc1ccc(/C=C/C(c2cc(Cl)c(Cl)c(Cl)c2)C(F)(F)F)cc1C(F)(F)F)c1cccnc1 (stereo not shown) [CC23] | – | – | CEW Rating [6]: A (50-100); GPA Rating ([1]; Table 3, Assays Results Part 1): B (More than 0-Less than 80)
20 | C[C@@H](NC(=O)c1ccc(/C=C/C(c2cc(Cl)c(Cl)c(Cl)c2)C(F)(F)C(F)(F)F)cc1C(F)(F)F)C(=O)NCC(F)(F)F (stereo partly shown) [Compound P1601] | – | – | pest or weed control at 200 µg/mL [1]: 0 to 80%
21 | C[C@H](NC(=O)c1ccc(/C=C/C(c2cc(Cl)c(Cl)c(Cl)c2)C(F)(F)F)cc1Br)C(=O)NCC(F)(F)F (stereo partly shown) [Compound F5] | 50 to 100% | 50 to 100% | –
22 | C[C@@H](NC(=O)c1ccc(/C=C\C(c2cc(Cl)c(Cl)c(Cl)c2)C(F)(F)F)cc1C(F)(F)F)C(=O)NCC(F)(F)F (stereo partly shown) [Compound F20C] | 50 to 100% | 50 to 100% | –
23 | CCC(NC(=O)c1ccc(/C=C/C(c2cc(Cl)c(Cl)c(Cl)c2)C(F)(F)F)cc1C)C(=O)NCC(F)(F)F (stereo not shown) [Compound F15A] | 50 to 100% | 50 to 100% | –
